Common to all, as to conditions: read-out: IZ
The subject of one test is Candida albicans. The test can be described thus: Antifungal activity against Candida albicans at 10 ug/disc after 24 to 48 hrs. In kind it is functional.
The subject of another test is Escherichia coli. The experiment in a line: Antibacterial activity against Escherichia coli at 1 ug/disc after 24 to 48 hrs.
The next test has as its system Staphylococcus aureus. The experiment in a line: Antibacterial activity against Staphylococcus aureus at 1 ug/disc after 24 to 48 hrs.
The subject of the next test is Bacillus subtilis. The experiment in a line: Antibacterial activity against Bacillus subtilis at 1 ug/disc after 24 to 48 hrs.
For the next test, the system named is Pseudomonas aeruginosa. The test can be described thus: Antibacterial activity against Pseudomonas aeruginosa at 1 ug/disc after 24 to 48 hrs.

For the compound `Clc1ccccc1C(c1ccccc1)(c1ccccc1)n1ccnc1` [CLOTRIMAZOLE], the zone of inhibition at 10 µg/disc in the test on Candida albicans came out at 12 mm.
Consider `O=C(O)c1cn(C2CC2)c2cc(N3CCNCC3)c(F)cc2c1=O` [CIPROFLOXACIN], for which the zone of inhibition at 1 µg/disc in the test on Escherichia coli was 16 mm; in the test with Staphylococcus aureus, 16 mm; in the test on Bacillus subtilis it was 17 mm; in the test with Pseudomonas aeruginosa, 17 mm.

(Values after ChEMBL document CHEMBL1158166, “DNA binding and biological studies of some novel water-soluble polymer-copper(II)-phenanthroline complexes” (2008).)
